Experiment: Sessile advancing contact angle of distilled water containing surfactants
Assay type: physicochemical
Details: water on oven dry P. radiata
Experimental: The contact angle data is recorded using water because resins, by their nature, can continue to polymerise resulting in changes in viscosity which will change the wetting behaviour of the resin/surfactant mix. […] Water is also present in all amino resins as the carrier of the resin solids so it is important to understand the effect of the surfactant on water because this will have a direct relationship on the wetting performance of the resin. The contact angle shown below is the average of at least 5 measurements. The measurements were taken after 1 second and in some instances after half a second. Where the entry is “n/a” it indicates complete wetting i.e. a contact angle of 0° or very close to 0°.

Contact angle @ 1 sec (surfactant 0.05%, octanol 0.1%): 31.0 °
Contact angle @ 1 sec (surfactant 0.1%, octanol 0.1%): 9.5 °
Contact angle @ 1 sec (surfactant 0.1%, octanol 0.25%): 8.99 °
SMILES: CCCCCCCCCCCCOS(=O)(=O)[O-].[Na+] [SDS]

Reference: patent US10111420B2 (priority 2011, dated 2018)
